Measurements from patent publication US10336792B2, “Antimicrobial peptide dendrimers” (priority 2014, dated 2019).
Converted amounts (≈) assume the structure as drawn. Positions of bridges follow the written chain, without caps; N, C: chain ends. Non-standard residues stand in square brackets, D forms with d. Residues, ends and D or L forms follow the SMILES beside them. Groups on a side chain read outwards from the residue. Chains are numbered I, II in the order given. *: point of attachment. Octanoyl = CCCCCCCC(=O)*; Dab = NCC[C@H](N)C(=O)O; Hexanoyl = CCCCCC(=O)*

Columns and labels:
Type in all cases: cell-based
[1] = test system: Pseudomonas aeruginosa (strain PA01); experiment: microbe, parasite or virus in culture; conditions: strain
Procedure, shortened: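 P. aeruginosa PAO1 grown overnight in LB, diluted to OD600 0.001 and mixed with ⅔-step peptide dilutions, then incubated at 37 °C for 18–24 h. After MTT staining, the lowest concentration with no visible growth was read by eye as the MIC.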

[2] = test system: Bacillus subtilis (strain BR151); conditions: strain BR151
Procedure, shortened: (§1)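 Broth microdilution MIC in LB; overnight cultures diluted to OD600 0.001 and mixed 1:1 with ⅔-serially diluted samples (stock 1 mg mL^−1 in H2O), 37° C for 18-24 h. MTT (0.1%) added; MIC read by eye as lowest concentration inhibiting visible growth (yellow).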

[3] = test system: Escherichia coli (strain DH5α); conditions: DH5α
Procedure, shortened: as §1

## CC(C)C[C@H](NC(=O)[C@H](CCCCN)NC(=O)[C@H](CCCCNC(=O)[C@H](CC(C)C)NC(=O)[C@@H](N)CCCCN)NC(=O)[C@H](CC(C)C)NC(=O)[C@@H](N)CCCCN)C(=O)NCCCC[C@H](NC(=O)[C@H](CC(C)C)NC(=O)[C@H](CCCCN)NC(=O)[C@H](CCCCNC(=O)[C@H](CC(C)C)NC(=O)[C@@H](N)CCCCN)NC(=O)[C@H](CC(C)C)NC(=O)[C@@H](N)CCCCN)C(=O)N[C@@H](CCCCN)C(=O)N[C@@H](CC(C)C)C(=O)N[C@@H](CSSC[C@H](NC(=O)[C@H](CC(C)C)NC(=O)[C@H](CCCCN)NC(=O)[C@H](CCCCNC(=O)[C@H](CC(C)C)NC(=O)[C@H](CCCCN)NC(=O)[C@H](CCCCNC(=O)[C@H](CC(C)C)NC(=O)[C@@H](N)CCCCN)NC(=O)[C@H](CC(C)C)NC(=O)[C@@H](N)CCCCN)NC(=O)[C@H](CC(C)C)NC(=O)[C@H](CCCCN)NC(=O)[C@H](CCCCNC(=O)[C@H](CC(C)C)NC(=O)[C@@H](N)CCCCN)NC(=O)[C@H](CC(C)C)NC(=O)[C@@H](N)CCCCN)C(N)=O)C(N)=O [CCS-3 dimer, ((KL)4(KKL)2KKLC)2] (I: H-KLK([Leu-Lys])KLKKLC-NH2 / II: H-KLK([Leu-Lys])KLKKLC-NH2 / III: H-KLK([Leu-Lys])KL / IV: H-KLK([Leu-Lys])KL; amide I:6-III:C, II:6-IV:C; disulfide I:9-II:9; N-terminus assumed)
[1]
  MIC P. aeruginosa PAO1: 3 µg/mL (≈ 0.684 µM)
[2]
  MIC B. subtilis BR151: 4 µg/mL (≈ 0.912 µM)
[3]
  MIC E. coli DH5α: 4 µg/mL (≈ 0.912 µM)

## CCCCCC(=O)NCCCC[C@H](NC(=O)[C@H](CC(C)C)NC(=O)[C@H](CCCCN)NC(=O)[C@H](CCCCNC(=O)[C@H](CC(C)C)NC(=O)[C@H](CCCCN)NC(=O)[C@H](CCCCNC(=O)[C@H](CC(C)C)NC(=O)[C@H](CCCCN)NC(=O)[C@H](CCCCNC(=O)[C@H](CC(C)C)NC(=O)[C@@H](N)CCCCN)NC(=O)[C@H](CC(C)C)NC(=O)[C@@H](N)CCCCN)NC(=O)[C@H](CC(C)C)NC(=O)[C@H](CCCCN)NC(=O)[C@H](CCCCNC(=O)[C@H](CC(C)C)NC(=O)[C@@H](N)CCCCN)NC(=O)[C@H](CC(C)C)NC(=O)[C@@H](N)CCCCN)NC(=O)[C@H](CC(C)C)NC(=O)[C@H](CCCCN)NC(=O)[C@H](CCCCNC(=O)[C@H](CC(C)C)NC(=O)[C@H](CCCCN)NC(=O)[C@H](CCCCNC(=O)[C@H](CC(C)C)NC(=O)[C@@H](N)CCCCN)NC(=O)[C@H](CC(C)C)NC(=O)[C@@H](N)CCCCN)NC(=O)[C@H](CC(C)C)NC(=O)[C@H](CCCCN)NC(=O)[C@H](CCCCNC(=O)[C@H](CC(C)C)NC(=O)[C@@H](N)CCCCN)NC(=O)[C@H](CC(C)C)NC(=O)[C@@H](N)CCCCN)C(N)=O [MSt-264, (KL)8(KKL)4(KKL)2(KKLKC6)] (I: H-KLK([Leu-Lys])KLKKLKKLK(Hexanoyl)-NH2 / II: H-KLK([Leu-Lys])KLKKL / III: H-KLK([Leu-Lys])KL / IV: H-KLK([Leu-Lys])KL; amide I:6-IV:C, I:9-II:C, II:6-III:C)
[1]
  MIC P. aeruginosa PAO1: 1 µg/mL (≈ 0.21 µM)
[2]
  MIC B. subtilis BR151: 5 µg/mL (≈ 1.05 µM)
[3]
  MIC E. coli DH5α: 1 µg/mL (≈ 0.21 µM)

## CC(C)C[C@H](NC(=O)[C@H](CC(C)C)NC(=O)[C@H](CCCCNC(=O)[C@H](CCCCN)NC(=O)[C@H](CCCCN)NC(=O)[C@H](CCCCNC(=O)[C@H](CC(C)C)NC(=O)[C@@H](N)CC(C)C)NC(=O)[C@H](CC(C)C)NC(=O)[C@@H](N)CC(C)C)NC(=O)[C@H](CCCCN)NC(=O)[C@H](CCCCN)NC(=O)[C@H](CCCCNC(=O)[C@H](CC(C)C)NC(=O)[C@@H](N)CC(C)C)NC(=O)[C@H](CC(C)C)NC(=O)[C@@H](N)CC(C)C)C(=O)NCCCC[C@H](NC(=O)[C@H](CC(C)C)NC(=O)[C@H](CC(C)C)NC(=O)[C@H](CCCCNC(=O)[C@H](CCCCN)NC(=O)[C@H](CCCCN)NC(=O)[C@H](CCCCNC(=O)[C@H](CC(C)C)NC(=O)[C@@H](N)CC(C)C)NC(=O)[C@H](CC(C)C)NC(=O)[C@@H](N)CC(C)C)NC(=O)[C@H](CCCCN)NC(=O)[C@H](CCCCN)NC(=O)[C@H](CCCCNC(=O)[C@H](CC(C)C)NC(=O)[C@@H](N)CC(C)C)NC(=O)[C@H](CC(C)C)NC(=O)[C@@H](N)CC(C)C)C(=O)N[C@@H](CCCCN)C(=O)N[C@@H](CCCCN)C(N)=O [MSt-180, (LL)8(KKK)4(KLL)2(KKK)] (I: H-LLK([Leu-Leu])KKKLLKKK-NH2 / II: H-LLK([Leu-Leu])KKKLL / III: H-LLK([Leu-Leu])KK / IV: H-LLK([Leu-Leu])KK; amide I:6-IV:C, I:9-II:C, II:6-III:C)
[1]
  MIC P. aeruginosa PAO1: 12 µg/mL (≈ 2.69 µM)
[2]
  MIC B. subtilis BR151: 3 µg/mL (≈ 0.673 µM)
[3]
  MIC E. coli DH5α: >62 µg/mL

## CC(C)C[C@H](NC(=O)[C@@H](N)CCN)C(=O)NCCCC[C@H](NC(=O)[C@H](CC(C)C)NC(=O)[C@@H](N)CCN)C(=O)N[C@@H](CCN)C(=O)N[C@@H](C)C(=O)NCCCC[C@H](NC(=O)[C@H](C)NC(=O)[C@H](CCN)NC(=O)[C@H](CCCCNC(=O)[C@H](CC(C)C)NC(=O)[C@@H](N)CCN)NC(=O)[C@H](CC(C)C)NC(=O)[C@@H](N)CCN)C(=O)N[C@@H](CCN)C(=O)N[C@@H](Cc1c[nH]c2ccccc12)C(=O)NCCCC[C@H](NC(=O)[C@H](Cc1c[nH]c2ccccc12)NC(=O)[C@H](CCN)NC(=O)[C@H](CCCCNC(=O)[C@H](C)NC(=O)[C@H](CCN)NC(=O)[C@H](CCCCNC(=O)[C@H](CC(C)C)NC(=O)[C@@H](N)CCN)NC(=O)[C@H](CC(C)C)NC(=O)[C@@H](N)CCN)NC(=O)[C@H](C)NC(=O)[C@H](CCN)NC(=O)[C@H](CCCCNC(=O)[C@H](CC(C)C)NC(=O)[C@@H](N)CCN)NC(=O)[C@H](CC(C)C)NC(=O)[C@@H](N)CCN)C(=O)N[C@@H](CCN)C(=O)N[C@@H](Cc1c[nH]c2ccccc12)C(N)=O [MSt-207, (DabL)8(KDabA)4(KDabW)2(KDabW)] (I: H-[Dab]LK([Leu-Dab])[Dab]AK[Dab]WK[Dab]W-NH2 / II: H-[Dab]LK([Leu-Dab])[Dab]AK[Dab]W / III: H-[Dab]LK([Leu-Dab])[Dab]A / IV: H-[Dab]LK([Leu-Dab])[Dab]A; amide I:6-IV:C, I:9-II:C, II:6-III:C; N-terminus assumed)
[1]
  MIC P. aeruginosa PAO1: 8 µg/mL (≈ 1.92 µM)
[2]
  MIC B. subtilis BR151: 7 µg/mL (≈ 1.68 µM)
[3]
  MIC E. coli DH5α: 21 µg/mL (≈ 5.04 µM)

## CC(C)C[C@H](NC(=O)[C@H](CCN)NC(=O)[C@H](CCCCNC(=O)[C@H](Cc1c[nH]c2ccccc12)NC(=O)[C@H](CCN)NC(=O)[C@H](CCCCNC(=O)[C@H](CC(C)C)NC(=O)[C@@H](N)CCN)NC(=O)[C@H](CC(C)C)NC(=O)[C@@H](N)CCN)NC(=O)[C@H](Cc1c[nH]c2ccccc12)NC(=O)[C@H](CCN)NC(=O)[C@H](CCCCNC(=O)[C@H](CC(C)C)NC(=O)[C@@H](N)CCN)NC(=O)[C@H](CC(C)C)NC(=O)[C@@H](N)CCN)C(=O)NCCCC[C@H](NC(=O)[C@H](CC(C)C)NC(=O)[C@H](CCN)NC(=O)[C@H](CCCCNC(=O)[C@H](Cc1c[nH]c2ccccc12)NC(=O)[C@H](CCN)NC(=O)[C@H](CCCCNC(=O)[C@H](CC(C)C)NC(=O)[C@@H](N)CCN)NC(=O)[C@H](CC(C)C)NC(=O)[C@@H](N)CCN)NC(=O)[C@H](Cc1c[nH]c2ccccc12)NC(=O)[C@H](CCN)NC(=O)[C@H](CCCCNC(=O)[C@H](CC(C)C)NC(=O)[C@@H](N)CCN)NC(=O)[C@H](CC(C)C)NC(=O)[C@@H](N)CCN)C(=O)N[C@@H](CCN)C(=O)N[C@@H](Cc1c[nH]c2ccccc12)C(N)=O [MSt-202, (DabL)8(KDabW)4(KDabL)2(KDabW)] (I: H-[Dab]LK([Leu-Dab])[Dab]WK[Dab]LK[Dab]W-NH2 / II: H-[Dab]LK([Leu-Dab])[Dab]WK[Dab]L / III: H-[Dab]LK([Leu-Dab])[Dab]W / IV: H-[Dab]LK([Leu-Dab])[Dab]W; amide I:6-IV:C, I:9-II:C, II:6-III:C; N-terminus assumed)
[1]
  MIC P. aeruginosa PAO1: 2 µg/mL (≈ 0.447 µM)
[2]
  MIC B. subtilis BR151: 1 µg/mL (≈ 0.223 µM)
[3]
  MIC E. coli DH5α: 1 µg/mL (≈ 0.223 µM)

## CCCCCCCC(=O)NCCCC[C@H](NC(=O)[C@H](CC(C)C)NC(=O)[C@H](CCCCN)NC(=O)[C@H](CCCCNC(=O)[C@H](CC(C)C)NC(=O)[C@H](CCCCN)NC(=O)[C@H](CCCCNC(=O)[C@H](CC(C)C)NC(=O)[C@H](CCCCN)NC(=O)[C@H](CCCCNC(=O)[C@H](CC(C)C)NC(=O)[C@@H](N)CCCCN)NC(=O)[C@H](CC(C)C)NC(=O)[C@@H](N)CCCCN)NC(=O)[C@H](CC(C)C)NC(=O)[C@H](CCCCN)NC(=O)[C@H](CCCCNC(=O)[C@H](CC(C)C)NC(=O)[C@@H](N)CCCCN)NC(=O)[C@H](CC(C)C)NC(=O)[C@@H](N)CCCCN)NC(=O)[C@H](CC(C)C)NC(=O)[C@H](CCCCN)NC(=O)[C@H](CCCCNC(=O)[C@H](CC(C)C)NC(=O)[C@H](CCCCN)NC(=O)[C@H](CCCCNC(=O)[C@H](CC(C)C)NC(=O)[C@@H](N)CCCCN)NC(=O)[C@H](CC(C)C)NC(=O)[C@@H](N)CCCCN)NC(=O)[C@H](CC(C)C)NC(=O)[C@H](CCCCN)NC(=O)[C@H](CCCCNC(=O)[C@H](CC(C)C)NC(=O)[C@@H](N)CCCCN)NC(=O)[C@H](CC(C)C)NC(=O)[C@@H](N)CCCCN)C(N)=O [MSt-265, (KL)8(KKL)4(KKL)2(KKLKC8)] (I: H-KLK([Leu-Lys])KLKKLKKLK(Octanoyl)-NH2 / II: H-KLK([Leu-Lys])KLKKL / III: H-KLK([Leu-Lys])KL / IV: H-KLK([Leu-Lys])KL; amide I:6-IV:C, I:9-II:C, II:6-III:C)
[1]
  MIC P. aeruginosa PAO1: 1 µg/mL (≈ 0.209 µM)
[2]
  MIC B. subtilis BR151: 4 µg/mL (≈ 0.835 µM)
[3]
  MIC E. coli DH5α: 1 µg/mL (≈ 0.209 µM)

## CCCCCCCC(=O)NCCCC[C@H](NC(=O)[C@H](CC(C)C)NC(=O)[C@H](CCCCN)NC(=O)[C@H](CCCCNC(=O)[C@H](CC(C)C)NC(=O)[C@H](CCCCN)NC(=O)[C@H](CCCCNC(=O)[C@H](CC(C)C)NC(=O)[C@@H](N)CCCCN)NC(=O)[C@H](CC(C)C)NC(=O)[C@@H](N)CCCCN)NC(=O)[C@H](CC(C)C)NC(=O)[C@H](CCCCN)NC(=O)[C@H](CCCCNC(=O)[C@H](CC(C)C)NC(=O)[C@@H](N)CCCCN)NC(=O)[C@H](CC(C)C)NC(=O)[C@@H](N)CCCCN)C(N)=O [MSt-261, (KL)4(KKL)2(KKLKC8)] (I: H-KLK([Leu-Lys])KLKKLK(Octanoyl)-NH2 / II: H-KLK([Leu-Lys])KL; amide I:6-II:C)
[1]
  MIC P. aeruginosa PAO1: 1 µg/mL (≈ 0.426 µM)
[2]
  MIC B. subtilis BR151: 4 µg/mL (≈ 1.71 µM)
[3]
  MIC E. coli DH5α: 1 µg/mL (≈ 0.426 µM)
